Values after ≈ are worked out from the molar mass of the structure shown.
What was measured:
[1] = background; cited from earlier work
[2] = Solubilization kinetics / solubility test (oversaturation, paddle method, continuous flow cell)
Excerpt: This test, effected within a few minutes from the beginning of the solubilization process, provides data to be considered as one of the most important parameters for the biopharmaceutical evaluation of the products.

[3] = background, cited from earlier work
[4] = Water-wettability by water contact angle analysis; format: physicochemical
Excerpt: Data are given relevant to water-wettability determined by water contact angle analysis, true density determined by Helium pycnometry, and surface area determined by mercury porosimetry (Table 2).

In the case of `CN1C(C(=O)Nc2ccccn2)=C(O)c2ccccc2S1(=O)=O` [piroxicam], the “solubility (in words)” value [1] is listed as “poorly soluble in water and in biological fluids at physiological pH values”, the “C max (oversaturation value)” value ([2]; acetate buffer pH 5.0, 500 ml, 125 rpm, 37 °C, product at least 10 times saturation quantity) is listed as 30000 ng/mL and the solubility thermodynamic ([2]; acetate buffer, pH 5, aqueous buffer) is listed as 30 µg/mL (≈ 90.5 µM). The “analgesic and anti-inflammatory activity (in words)” value [3] was “considerable analgesic and anti-inflammatory activity”, the “absorption (in words)” value ([3]; oral and rectal routes) was “slow and gradual absorption via both the oral and rectal routes” and the water contact angle [4] was 76 °.
